# From PubChem BioAssay AID280 (DTP/NCI, 2004)
# Where “and” joins values, the source holds several entries; their conditions need not be identical. Equal values may be shown once. Toxic doses and inconclusive results are not listed.
# System: nude mice, LOX melanoma ip, survival T/C
# Test: NCI In Vivo Anticancer Drug Screen. Data for tumor model Human Amelanotic Melanoma (LOX) (intraperitoneal) in NU/NU BALB/C (nude) mice
# Conditions: endpoint: median survival time, higher = longer survival
# Protocol: The antitumor activity of compounds was measured in mice bearing transplantable tumors. Survival or tumor size were measured and the results are expressed as the measurement made in the treated group (T) divided by the measurement made in the vehicle treated control group (C). The tumor model used in this assay is Human Amelanotic Melanoma (LOX) (intraperitoneal) in NU/NU BALB/C (nude) mice
# [1] = dose: 100.0 mg/kg/injection, schedule: Q04DX003 (ip), vehicle: saline with Tween-80
# [2] = dose: 200.0 mg/kg/injection, schedule: Q04DX003 (ip), vehicle: saline with Tween-80
# [3] = dose: 400.0 mg/kg/injection, schedule: Q04DX003 (ip), vehicle: saline with Tween-80
# [4] = dose: 75.0 mg/kg/injection, schedule: Q04DX003 (ip), vehicle: saline with Tween-80
# [5] = dose: 150.0 mg/kg/injection, schedule: Q04DX003 (ip), vehicle: saline with Tween-80
# [6] = dose: 25.0 mg/kg/injection, schedule: Q04DX003 (ip), vehicle: saline with Tween-80
# [7] = dose: 50.0 mg/kg/injection, schedule: Q04DX003 (ip), vehicle: saline with Tween-80
# [8] = dose: 600.0 mg/kg/injection, schedule: Q04DX003 (ip), vehicle: Klucel (hydroxypropylcellulose) (HPC)
# [9] = dose: 1200.0 mg/kg/injection, schedule: Q04DX003 (ip), vehicle: Klucel (hydroxypropylcellulose) (HPC)
# [10] = dose: 6.25 mg/kg/injection, schedule: Q04DX003 (ip), vehicle: saline with Tween-80
# [11] = dose: 12.5 mg/kg/injection, schedule: Q04DX003 (ip), vehicle: saline with Tween-80
structure (smiles),measurement,setting,value
CNC(=O)N(C)N=NCCCl,T/C,[1],201 % of control
same,T/C,[2],309 % of control
same,T/C,[3],309 % of control
same,T/C,"dose: 800.0 mg/kg/injection, schedule: Q04DX003 (ip), vehicle: saline with Tween-80",309 % of control
COc1ccc(S(=O)(=O)N=N/C=C2\C=CC=CN2O)cc1OC,T/C,"dose: 9.38 mg/kg/injection, schedule: Q04DX003 (ip), vehicle: saline with Tween-80",116 % of control
same,T/C,"dose: 18.75 mg/kg/injection, schedule: Q04DX003 (ip), vehicle: saline with Tween-80",101 % of control
same,T/C,"dose: 37.5 mg/kg/injection, schedule: Q04DX003 (ip), vehicle: saline with Tween-80",94 % of control
same,T/C,"dose: 54.0 mg/kg/injection, schedule: Q04DX003 (ip), vehicle: saline with Tween-80",124 % of control
same,T/C,[4],105 % of control
same,T/C,[5],173 % of control
same,T/C,"dose: 250.0 mg/kg/injection, schedule: Q04DX003 (ip), vehicle: saline with Tween-80",165 % of control
same,T/C,"dose: 416.67 mg/kg/injection, schedule: Q04DX003 (ip), vehicle: saline with Tween-80",156 % of control
O=C1C=C(N2CC2)C(=O)C(N2CC2)=C1N1CC1,T/C,"dose: 25.0 micrograms/kg/injection, schedule: Q04DX003 (ip), vehicle: saline",177 % of control
same,T/C,"dose: 43.0 micrograms/kg/injection, schedule: Q04DX003 (ip), vehicle: saline",116 % of control
same,T/C,"dose: 100.0 micrograms/kg/injection, schedule: Q04DX003 (ip), vehicle: saline",220 % of control
same,T/C,"dose: 120.0 micrograms/kg/injection, schedule: Q04DX003 (ip), vehicle: saline",158 % of control
same,T/C,"dose: 200.0 micrograms/kg/injection, schedule: Q04DX003 (ip), vehicle: saline",277 % of control
same,T/C,"dose: 333.0 micrograms/kg/injection, schedule: Q04DX003 (ip), vehicle: saline",187 % of control
O=C1c2cccc(NCCNCCO)c2C(=O)c2cccc(NCCNCCO)c21,T/C,"dose: 4.69 mg/kg/injection, schedule: Q04DX003 (ip), vehicle: suspension in saline",122 % of control
same,T/C,"dose: 9.38 mg/kg/injection, schedule: Q04DX003 (ip), vehicle: suspension in saline",120 % of control
COc1ccc(C(C)c2cc3c(cc2OC)OCO3)cc1 (stereo not drawn),T/C,[6],114 % of control
same,T/C,[1],158 % of control
same,T/C,[2],198 % of control
O=C(NNC(=O)c1cccc(C(=O)NNC(=O)c2ccc(Cl)c(Cl)c2)n1)c1ccc(Cl)c(Cl)c1,T/C,[6],103 % of control
same,T/C,[7],119 % of control
same,T/C,[4],104 % of control
same,T/C,[1],119 % of control
same,T/C,[5],110 % of control
same,T/C,[2],122 % of control
same,T/C,"dose: 300.0 mg/kg/injection, schedule: Q04DX003 (ip), vehicle: saline with Tween-80",204 % of control
same,T/C,[3],116 % of control
same,T/C,"dose: 600.0 mg/kg/injection, schedule: Q04DX003 (ip), vehicle: saline with Tween-80",167 % of control
same,T/C,"dose: 1200.0 mg/kg/injection, schedule: Q04DX003 (ip), vehicle: saline with Tween-80",164 % of control
NC(N)=NS(=O)(=O)c1ccc(NCc2c3ccccc3nc3ccccc23)cc1,T/C,[8],166 % of control
same,T/C,[9],155 % of control
O=C1CN(c2ccccc2)C(=O)C1C(=O)Nc1ccc(Cl)c(Cl)c1 (stereo not drawn),T/C,"dose: 120.0 mg/kg/injection, schedule: Q04DX003 (ip), vehicle: saline with Tween-80",115 % of control
[CH3][Sn]([CH3])([Cl])[S]CCN,T/C,[10],101 % of control
same,T/C,[11],109 % of control
same,T/C,[6],105 % of control
same,T/C,[7],115 % of control
same,T/C,[1],103 % of control
CCOC(=O)C(N)C[S][Sn]([CH3])([CH3])[Cl] (stereo not drawn),T/C,[11],99 % of control
same,T/C,[6],101 % of control
same,T/C,[7],104 % of control
CN1CCN(CN2C(=O)C3C4C=CC(C3C2=O)C2C3C(=O)N(CN5CCN(C)CC5)C(=O)C3C42)CC1 (stereo not drawn),T/C,"dose: 12.5 mg/kg/injection, schedule: Q04DX003 (ip), vehicle: water",104 % of control
same,T/C,"dose: 25.0 mg/kg/injection, schedule: Q04DX003 (ip), vehicle: water",109 % of control
same,T/C,"dose: 50.0 mg/kg/injection, schedule: Q04DX003 (ip), vehicle: water",110 % of control
same,T/C,"dose: 100.0 mg/kg/injection, schedule: Q04DX003 (ip), vehicle: water",106 % of control
O=[N+]([O-])c1ccc(N(CCO)CCO)c2c1no[n+]2[O-],T/C,[10],99 % of control
same,T/C,[11],106 % of control
same,T/C,[6],111 % of control
same,T/C,[7],93 % of control
same,T/C,[1],115 % of control
CC(C)(C)c1ccc(C(=O)N2CCOC23CCCCC3)cc1,T/C,"dose: 75.0 mg/kg/injection, schedule: Q04DX003 (ip), vehicle: Klucel (hydroxypropylcellulose) (HPC)",98 % of control
same,T/C,"dose: 150.0 mg/kg/injection, schedule: Q04DX003 (ip), vehicle: Klucel (hydroxypropylcellulose) (HPC)",95 % of control
same,T/C,"dose: 300.0 mg/kg/injection, schedule: Q04DX003 (ip), vehicle: Klucel (hydroxypropylcellulose) (HPC)",92 % of control
same,T/C,[8],107 % of control
same,T/C,[9],107 % of control
COc1cc(NCc2ccc3nc(N)nc(N)c3c2C)cc(OC)c1OC,T/C,"dose: 7.5 mg/kg/injection, schedule: Q04DX003 (ip), vehicle: Klucel (hydroxypropylcellulose) (HPC)",151 % of control
same,T/C,"dose: 15.0 mg/kg/injection, schedule: Q04DX003 (ip), vehicle: Klucel (hydroxypropylcellulose) (HPC)",118 % of control
same,T/C,"dose: 30.0 mg/kg/injection, schedule: Q04DX003 (ip), vehicle: Klucel (hydroxypropylcellulose) (HPC)",118 % of control
same,T/C,"dose: 60.0 mg/kg/injection, schedule: Q04DX003 (ip), vehicle: Klucel (hydroxypropylcellulose) (HPC)",123 % of control
CC(=O)OCC1OC(n2ncc(=O)[nH]c2=O)C(OC(C)=O)C1OC(C)=O (stereo not drawn),T/C,"dose: 75.0 mg/kg/injection, schedule: Q04DX003 (ip), vehicle: suspension in saline",99 % of control
same,T/C,"dose: 150.0 mg/kg/injection, schedule: Q04DX003 (ip), vehicle: suspension in saline",105 % of control
same,T/C,"dose: 300.0 mg/kg/injection, schedule: Q04DX003 (ip), vehicle: suspension in saline",104 % of control
same,T/C,"dose: 600.0 mg/kg/injection, schedule: Q04DX003 (ip), vehicle: suspension in saline",99 % of control
same,T/C,"dose: 1200.0 mg/kg/injection, schedule: Q04DX003 (ip), vehicle: suspension in saline",95 % of control
O=C(NC(Cc1ccc(I)cc1)C(=O)O)c1ccc(Br)cc1 (stereo not drawn),T/C,"dose: 18.75 mg/kg/injection, schedule: Q04DX003 (ip), vehicle: other",94 % of control
same,T/C,"dose: 18.75 mg/kg/injection, schedule: Q04DX003 (ip), vehicle: sodium bicarbonate",111 % of control
same,T/C,"dose: 37.5 mg/kg/injection, schedule: Q04DX003 (ip), vehicle: other",151 % of control
same,T/C,"dose: 37.5 mg/kg/injection, schedule: Q04DX003 (ip), vehicle: sodium bicarbonate",107 % of control
same,T/C,"dose: 75.0 mg/kg/injection, schedule: Q04DX003 (ip), vehicle: other",91 % of control
same,T/C,"dose: 75.0 mg/kg/injection, schedule: Q04DX003 (ip), vehicle: sodium bicarbonate",96 % of control
same,T/C,"dose: 150.0 mg/kg/injection, schedule: Q04DX003 (ip), vehicle: other",98 % of control
same,T/C,"dose: 150.0 mg/kg/injection, schedule: Q04DX003 (ip), vehicle: sodium bicarbonate",86 % of control
same,T/C,"dose: 300.0 mg/kg/injection, schedule: Q04DX003 (ip), vehicle: sodium bicarbonate",106 % of control
c1ccc2c3c(c4c(c2c1)CN(C1CCCCC1)CO4)OCN(C1CCCCC1)C3,T/C,"dose: 18.75 mg/kg/injection, schedule: Q04DX003 (ip), vehicle: water",102 % of control
same,T/C,"dose: 37.5 mg/kg/injection, schedule: Q04DX003 (ip), vehicle: water",107 % of control
same,T/C,"dose: 75.0 mg/kg/injection, schedule: Q04DX003 (ip), vehicle: water",123 % of control
CC(=O)O[C@H]1C(=O)[C@@]2(C)[C@H]([C@H](OC(=O)c3ccccc3)[C@]3(O)C[C@H](OC(=O)[C@H](O)[C@@H](NC(=O)c4ccccc4)c4ccccc4)C(C)=C1C3(C)C)[C@]1(OC(C)=O)CO[C@@H]1C[C@@H]2O,T/C,"dose: 1.88 mg/kg/injection, schedule: Q01DX009 (ip), vehicle: Klucel (hydroxypropylcellulose) (HPC)",172 % of control
same,T/C,"dose: 3.75 mg/kg/injection, schedule: Q01DX009 (ip), vehicle: Klucel (hydroxypropylcellulose) (HPC)",158 % of control and 173 % of control
same,T/C,"dose: 7.5 mg/kg/injection, schedule: Q01DX009 (ip), vehicle: Klucel (hydroxypropylcellulose) (HPC)",170 % of control
same,T/C,"dose: 15.0 mg/kg/injection, schedule: Q01DX009 (ip), vehicle: Klucel (hydroxypropylcellulose) (HPC)",105 % of control and 93 % of control
